According to article PMC11596392, “Enhanced Antibacterial, Anti-Inflammatory, and Antibiofilm Activities of Tryptophan-Substituted Peptides Derived from Cecropin A-Melittin Hybrid Peptide BP100” (Molecules, 2024):
Read-outs that look alike come from different tables or passages of the source. Where no end group is shown, it is not given here.

What was measured:
S. aureus (KCTC 1621) [1] = assay type: cell-based, Staphylococcus aureus
Procedure: To comprehensively evaluate the therapeutic potential of BP100 and the five selected analogs, we assessed their capacity to maintain antibacterial activity in the presence of physiological salts and serum (Table 4). Antibacterial assays were conducted in an environment supplemented with either […] fresh human serum or physiological salts. […] This enhanced stability in physiologically relevant conditions may have important implications for the potential therapeutic applications of these peptide analogs.
(§1) The minimal inhibitory concentrations (MICs) of the peptides against bacterial strains were determined using a modified broth-microdilution method in accordance with the National Committee for Clinical Laboratory Standards (NCCLS) guidelines. Overnight cultures were diluted in cation-adjusted Mueller–Hinton Broth (MHB) to achieve an inoculum density of 2 × 10^6 CFU/mL. A two-fold serial dilution of the peptide solution (100 μL) was introduced into microtiter plates, followed by the addition of 100 μL of bacterial suspension. The plates were then incubated at 37 °C for 24 h to determine the MICs. Wells containing only culture media served as negative controls, while those with added bacteria functioned as positive controls. The MIC, expressed in μM, was defined as the lowest peptide concentration that prevented visible bacterial growth. This protocol was also employed to determine MICs in the presence of physiological salts (150 mM of NaCl, 4.5 mM of KCl, 6 μM of NH4Cl, 1 mM of MgCl2, 2.5 mM of CaCl2, and 4 μM of FeCl3) and 20% human serum to assess the peptides’ efficacy under conditions more closely resembling physiological environments. All experiments were conducted in triplicate and repeated three times independently to ensure reproducibility and statistical significance of the results.

E. coli (KCTC 1682) [2] = assay type: cell-based, Escherichia coli; conditions: 10% Human Serum
E. coli (KCTC 1682) [3] = assay type: cell-based, Escherichia coli; conditions: broth microdilution in MHB, 37 °C, 24 h, 100% inhibition of growth
Procedure: (§2) The antibacterial efficacy of the synthesized peptides was evaluated by determining the minimal inhibitory concentrations (MICs) against six standard bacterial strains and five drug-resistant bacterial strains using the Clinical and Laboratory Standards Institute (CLSI) microdilution method. Melittin served as the positive control.
as §1

S. aureus (KCTC 1621) [4] = assay type: cell-based, Staphylococcus aureus; conditions: broth microdilution in MHB, 37 °C, 24 h, 100% inhibition of growth
Procedure: as §2, §1

B. subtilis (KCTC 3068) = assay type: cell-based, Bacillus subtilis; conditions: broth microdilution in MHB, 37 °C, 24 h, 100% inhibition of growth
Procedure: as §2, §1

VREF (ATCC 51559) = assay type: cell-based, vancomycin-resistant Enterococcus faecium; conditions: broth microdilution in MHB, 37 °C, 24 h, 100% inhibition of growth
Procedure: as §2, §1

[5] = tested on: sheep red blood cells (sRBCs); assay: Hemolytic activity assay; assay type: cell-based; conditions: 4% (v/v) sheep red blood cells in PBS, 1 h, 37 °C; 1 to 256 μM tested
Procedure: To assess toxicity in mammalian cells, we evaluated the hemolytic activity of the peptides on sheep red blood cells (sRBCs). […] The therapeutic index (TI), a measure commonly employed to evaluate the cell selectivity of antibacterial agents, was calculated as the ratio of the concentration causing 10% hemolysis of sRBCs (HC10) to the GM [19, 20, 21, 22].
The hemolytic activity of the peptides was tested through hemolysis assay of sheep red blood cells (sRBCs). The sRBCs were diluted in PBS to achieve a 4% (v/v) concentration. Subsequently, 100 μL of peptide solutions, ranging from 1 to 256 μM, was dispensed into a 96-well plate containing an equal volume of the erythrocyte suspension. After incubating for 1 h at 37 °C and centrifuging at 1000× g for 10 min, 100 μL of the supernatant was transferred to a new 96-well plate. Hemoglobin release was quantified using a microplate reader at a wavelength of […]. The percentage of hemolysis was calculated using percentage hemolysis = 100 × [[…]], where A represents the absorbance of the peptide-treated sample at 540 nm, A0 corresponds to the absorbance value representing 0% hemolysis in PBS, and At corresponds to the absorbance value representing 100% hemolysis in 0.1% Triton X-100.

[6] = tested on: S. epidermidis (KCTC 1917); assay type: cell-based, Staphylococcus epidermidis; conditions: broth microdilution in MHB, 37 °C, 24 h, 100% inhibition of growth
Procedure: as §2, §1

Substance: KKWFKKWLKWL-NH2 [BP13]
- MIC (S. aureus (KCTC 1621) [1]; 4 μM of FeCl3): 8 µM
- MIC (S. aureus (KCTC 1621) [1]; 6 μM of NH4Cl): 8 µM
- MIC (S. aureus (KCTC 1621) [1]; 1 mM of MgCl2): 8 µM
- MIC (S. aureus (KCTC 1621) [1]; 2.5 mM of CaCl2): 8 µM
- MIC (S. aureus (KCTC 1621) [1]; 4.5 mM of KCl): 8 µM
- MIC (S. aureus (KCTC 1621) [1]; 150 mM of NaCl): 8 µM
- MIC (S. aureus (KCTC 1621) [1]; Control, absence of salts): 4 µM
- MIC (E. coli (KCTC 1682) [2]): 16 µM
- Minimal Inhibitory Concentration (MIC) (E. coli (KCTC 1682) [3]): 8 µM
- Minimal Inhibitory Concentration (MIC) (S. aureus (KCTC 1621) [4]): 4 µM
- Minimal Inhibitory Concentration (MIC) (B. subtilis (KCTC 3068)): 8 µM
- Minimal Inhibitory Concentration (MIC) (VREF (ATCC 51559)): 16 µM
- HC10 (peptide concentration that caused 10% hemolysis) [5]: >256 µM
- Minimal Inhibitory Concentration (MIC) [6]: 8 µM

Substance: KKWWKKILKYL-NH2 [BP5]
- MIC (S. aureus (KCTC 1621) [1]; 4 μM of FeCl3): 4 µM
- MIC (S. aureus (KCTC 1621) [1]; 6 μM of NH4Cl): 4 µM
- MIC (S. aureus (KCTC 1621) [1]; 1 mM of MgCl2): 4 µM
- MIC (S. aureus (KCTC 1621) [1]; 2.5 mM of CaCl2): 4 µM
- MIC (S. aureus (KCTC 1621) [1]; 4.5 mM of KCl): 4 µM
- MIC (S. aureus (KCTC 1621) [1]; 150 mM of NaCl): 4 µM
- MIC (S. aureus (KCTC 1621) [1]; Control, absence of salts): 2 µM
- MIC (E. coli (KCTC 1682) [2]): 4 µM
- Minimal Inhibitory Concentration (MIC) (E. coli (KCTC 1682) [3]): 2 µM
- Minimal Inhibitory Concentration (MIC) (S. aureus (KCTC 1621) [4]): 2 µM
- Minimal Inhibitory Concentration (MIC) (B. subtilis (KCTC 3068)): 2 µM
- Minimal Inhibitory Concentration (MIC) (VREF (ATCC 51559)): 8 µM
- HC10 (peptide concentration that caused 10% hemolysis) [5]: >256 µM
- Minimal Inhibitory Concentration (MIC) [6]: 1 µM
